Assay results published in patent publication US20240376090A1, “ISOXAZOLE DERIVATIVES AS MODULATORS OF THE 5-HT2A SEROTONIN RECEPTOR USEFUL FOR THE TREATMENT OF DISORDERED RELATED THERETO” (Arena Pharmaceuticals, Inc., priority 2020, published 2024).

Target: 5-HT2A receptor (Homo sapiens (Human), UniProt P28223)
Test: Radioligand binding assay ([3H]5-HT competition), 5-HT2A
Conditions: [3H]5-HT radioligand, membranes of HEK293 cells expressing recombinant 5-HT2A; Ki from IC50 by Cheng-Prusoff; read-out: 5-HT2A serotonin binding Ki value

Sequence of 5-HT2A receptor (P28223 whole entry): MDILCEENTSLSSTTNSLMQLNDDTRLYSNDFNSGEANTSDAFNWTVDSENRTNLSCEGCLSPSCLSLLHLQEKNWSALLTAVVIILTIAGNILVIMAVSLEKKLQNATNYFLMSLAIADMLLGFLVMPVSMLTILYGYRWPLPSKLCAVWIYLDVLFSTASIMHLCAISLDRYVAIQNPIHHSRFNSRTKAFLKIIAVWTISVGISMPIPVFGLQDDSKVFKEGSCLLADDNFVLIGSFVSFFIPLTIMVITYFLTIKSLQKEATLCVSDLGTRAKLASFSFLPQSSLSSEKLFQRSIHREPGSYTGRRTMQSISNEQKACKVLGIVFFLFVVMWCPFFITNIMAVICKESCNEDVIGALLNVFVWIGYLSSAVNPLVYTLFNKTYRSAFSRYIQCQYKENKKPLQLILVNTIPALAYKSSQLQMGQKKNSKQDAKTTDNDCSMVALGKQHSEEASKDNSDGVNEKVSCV

Row | SMILES | Ki
1 | Cc1noc(C)c1-c1cc(NC(=O)c2cnoc2)ccc1OC[C@H]1CCCCN1 [Compound 182, N-[3-(3,5-dimethylisoxazol-4-yl)-4-[[(2R)-2-piperidyl]methoxy]phenyl]isoxazole-4-carboxamide] | 61.5 nM
2 | Cc1nocc1C(=O)Nc1ccc(OC[C@H]2CCCCN2)c(-c2c(C)noc2C)c1 [Compound 183, (R)—N-(3-(3,5-dimethylisoxazol-4-yl)-4-(piperidin-2-ylmethoxy)phenyl)-3-methylisoxazole-4-carboxamide] | 5.09 nM
3 | Cc1noc(C)c1-c1cc(NC(=O)c2cnoc2C)ccc1OC[C@H]1CCCCN1 [Compound 184, (R)—N-(3-(3,5-dimethylisoxazol-4-yl)-4-(piperidin-2-ylmethoxy)phenyl)-5-methylisoxazole-4-carboxamide] | 10.5 nM
4 | Cc1noc(C)c1-c1cc(NC(=O)c2ncoc2C)ccc1OC[C@H]1CCCCN1 [Compound 185, (R)—N-(3-(3,5-dimethylisoxazol-4-yl)-4-(piperidin-2-ylmethoxy)phenyl)-5-methyloxazole-4-carboxamide] | 8.77 nM
5 | Cc1noc(C)c1-c1cc(NC(=O)c2cnsc2)ccc1OC[C@H]1CCCCN1 [Compound 186, (R)—N-(3-(3,5-dimethylisoxazol-4-yl)-4-(piperidin-2-ylmethoxy)phenyl)isothiazole-4-carboxamide] | 7.71 nM
6 | Cc1noc(C)c1-c1cc(NC(=O)c2ncsc2C)ccc1OC[C@H]1CCCCN1 [Compound 188, (R)—N-(3-(3,5-dimethylisoxazol-4-yl)-4-(piperidin-2-ylmethoxy)phenyl)-5-methylthiazole-4-carboxamide] | 4.5 nM
7 | Cc1noc(C)c1-c1cc(NC(=O)[C@@H]2C[C@H]2F)ccc1OC[C@H]1CCCCN1 [Compound 190, (1S,2R)—N-(3-(3,5-dimethylisoxazol-4-yl)-4-(((R)-piperidin-2-yl)methoxy)phenyl)-2-fluorocyclopropane-1-carboxamide] | 1.19 nM
8 | Cc1ncsc1C(=O)Nc1ccc(OC[C@H]2CCCCN2)c(-c2c(C)noc2C)c1 [Compound 193, (R)—N-(3-(3,5-dimethylisoxazol-4-yl)-4-(piperidin-2-ylmethoxy)phenyl)-4-methylthiazole-5-carboxamide] | 2.69 nM
9 | Cc1nc(C)c(C(=O)Nc2ccc(OC[C@H]3CCCCN3)c(-c3c(C)noc3C)c2)s1 [Compound 194, (R)—N-(3-(3,5-dimethylisoxazol-4-yl)-4-(piperidin-2-ylmethoxy)phenyl)-2,4-dimethylthiazole-5-carboxamide] | 32.2 nM
10 | Cc1cnoc1C(=O)Nc1ccc(OC[C@H]2CCCCN2)c(-c2c(C)noc2C)c1 [Compound 195, (R)—N-(3-(3,5-dimethylisoxazol-4-yl)-4-(piperidin-2-ylmethoxy)phenyl)-4-methylisoxazole-5-carboxamide] | 15.2 nM
11 | Cc1noc(C)c1-c1cc(NC(=O)C(C)(C)F)ccc1OC[C@H]1CCCCN1 [Compound 199, N-[3-(3,5-dimethylisoxazol-4-yl)-4-[[(2R)-2-piperidyl]methoxy]phenyl]-2-fluoro-2-methyl-propanamide] | 35.6 nM
12 | Cc1noc(C)c1-c1cc(NC(=O)C2(CF)CC2)ccc1OC[C@H]1CCCCN1 [Compound 200, (R)—N-(3-(3,5-dimethylisoxazol-4-yl)-4-(piperidin-2-ylmethoxy)phenyl)-1-(fluoromethyl)cyclopropane-1-carboxamide] | 9.08 nM
13 | Cc1noc(C)c1-c1cc(NC(=O)C[C@@H]2CCOC2)ccc1OC[C@H]1CCCCN1 [Compound 201, N-(3-(3,5-dimethylisoxazol-4-yl)-4-(((R)-piperidin-2-yl)methoxy)phenyl)-2-((S)-tetrahydrofuran-3-yl)acetamide] | 11.9 nM
14 | Cc1noc(C)c1-c1cc(NC(=O)C2CC23CCOCC3)ccc1OC[C@H]1CCCCN1 (stereo partly drawn) [Compound 203, N-(3-(3,5-dimethylisoxazol-4-yl)-4-(((R)-piperidin-2-yl)methoxy)phenyl)-6-oxaspiro[2.5]octane-1-carboxamide] | 27.8 nM
15 | COCC1(C(=O)Nc2ccc(OC[C@H]3CCCCN3)c(-c3c(C)noc3C)c2)CC1 [Compound 204, (R)—N-(3-(3,5-dimethylisoxazol-4-yl)-4-(piperidin-2-ylmethoxy)phenyl)-1-(methoxymethyl)cyclopropane-1-carboxamide] | 25 nM
16 | COC1(CC(=O)Nc2ccc(OC[C@H]3CCCCN3)c(-c3c(C)noc3C)c2)CCC1 [Compound 205, (R)—N-(3-(3,5-dimethylisoxazol-4-yl)-4-(piperidin-2-ylmethoxy)phenyl)-2-(1-methoxycyclobutyl)acetamide] | 105 nM
17 | Cc1noc(C)c1-c1cc(NC(=O)C(F)c2ccccc2)ccc1OC[C@H]1CCCCN1 (stereo partly drawn) [Compound 206, N-(3-(3,5-dimethylisoxazol-4-yl)-4-(((R)-piperidin-2-yl)methoxy)phenyl)-2-fluoro-2-phenylacetamide] | 3.4 nM
18 | Cc1nc(C)c(C(=O)Nc2ccc(OC[C@H]3CCCCN3)c(-c3c(C)noc3C)c2)o1 [Compound 207, (R)—N-(3-(3,5-dimethylisoxazol-4-yl)-4-(piperidin-2-ylmethoxy)phenyl)-2,4-dimethyloxazole-5-carboxamide] | 235 nM
19 | Cc1cnn(C)c1C(=O)Nc1ccc(OC[C@H]2CCCCN2)c(-c2c(C)noc2C)c1 [Compound 208, (R)—N-(3-(3,5-dimethylisoxazol-4-yl)-4-(piperidin-2-ylmethoxy)phenyl)-1,4-dimethyl-1H-pyrazole-5-carboxamide] | 9.66 nM
20 | CCc1cc(C(=O)Nc2ccc(OC[C@H]3CCCCN3)c(-c3c(C)noc3C)c2)n(C)n1 [Compound 209, (R)—N-(3-(3,5-dimethylisoxazol-4-yl)-4-(piperidin-2-ylmethoxy)phenyl)-3-ethyl-1-methyl-1H-pyrazole-5-carboxamide] | 36.3 nM
21 | Cc1nc(C(=O)Nc2ccc(OC[C@H]3CCCCN3)c(-c3c(C)noc3C)c2)c(C)s1 [Compound 210, (R)—N-(3-(3,5-dimethylisoxazol-4-yl)-4-(piperidin-2-ylmethoxy)phenyl)-2,5-dimethylthiazole-4-carboxamide] | 86.3 nM
22 | Cc1noc(C)c1-c1cc(NC(=O)c2cnn(C)c2C)ccc1OC[C@H]1CCCCN1 [Compound 211, (R)—N-(3-(3,5-dimethylisoxazol-4-yl)-4-(piperidin-2-ylmethoxy)phenyl)-1,5-dimethyl-1H-pyrazole-4-carboxamide] | 40.9 nM
23 | Cc1noc(C)c1-c1cc(NC(=O)c2ncnn2C)ccc1OC[C@H]1CCCCN1 [Compound 212, (R)—N-(3-(3,5-dimethylisoxazol-4-yl)-4-(piperidin-2-ylmethoxy)phenyl)-1-methyl-1H-1,2,4-triazole-5-carboxamide] | 38.6 nM
24 | Cc1noc(C)c1-c1cc(NC(=O)Cc2nccs2)ccc1OC[C@H]1CCCCN1 [Compound 213, (R)—N-(3-(3,5-dimethylisoxazol-4-yl)-4-(piperidin-2-ylmethoxy)phenyl)-2-(thiazol-2-yl)acetamide] | 4.73 nM
25 | Cc1cnsc1C(=O)Nc1ccc(OC[C@H]2CCCCN2)c(-c2c(C)noc2C)c1 [Compound 214, (R)—N-(3-(3,5-dimethylisoxazol-4-yl)-4-(piperidin-2-ylmethoxy)phenyl)-4-methylisothiazole-5-carboxamide] | 3.05 nM
26 | Cc1nnsc1C(=O)Nc1ccc(OC[C@H]2CCCCN2)c(-c2c(C)noc2C)c1 [Compound 215, (R)—N-(3-(3,5-dimethylisoxazol-4-yl)-4-(piperidin-2-ylmethoxy)phenyl)-4-methyl-1,2,3-thiadiazole-5-carboxamide] | 18.4 nM
